Measurements taken from BindingDB's records for doi:10.1074/jbc.M113.510974 (Albert Einstein College of Medicine, 2013).
pKi: −log10 of the molar value.

What was measured:
[1] = target: T1, Sulfotransferase 2A1 (Homo sapiens, UniProt Q06520); test: Amoxapine and Protriptyline Inhibition Assay; settings: pH 7.5; 2 °C
T1 sequence (Q06520 whole entry): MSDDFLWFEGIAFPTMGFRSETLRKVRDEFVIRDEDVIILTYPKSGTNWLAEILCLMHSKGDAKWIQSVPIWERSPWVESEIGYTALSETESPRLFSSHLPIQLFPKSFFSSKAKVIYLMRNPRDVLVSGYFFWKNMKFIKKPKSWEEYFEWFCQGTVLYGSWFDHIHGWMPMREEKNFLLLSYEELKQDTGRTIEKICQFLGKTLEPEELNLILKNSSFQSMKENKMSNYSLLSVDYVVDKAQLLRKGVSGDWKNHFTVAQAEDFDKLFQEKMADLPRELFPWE
Method: (§1) Sulfation of PnP was monitored optically at λ = 415 nm (ε415 = 10.6 mM-1 cm-1 at pH 7.5 [Whittemore et al., Biochemistry, 24:2477-2482).

[2] = target: Sulfotransferase 1A1 (Homo sapiens, UniProt P50225); test: Amoxapine and Protriptyline Inhibition Assay; settings: pH 7.5; 2 °C
Sequence of Sulfotransferase 1A1 (P50225 whole entry): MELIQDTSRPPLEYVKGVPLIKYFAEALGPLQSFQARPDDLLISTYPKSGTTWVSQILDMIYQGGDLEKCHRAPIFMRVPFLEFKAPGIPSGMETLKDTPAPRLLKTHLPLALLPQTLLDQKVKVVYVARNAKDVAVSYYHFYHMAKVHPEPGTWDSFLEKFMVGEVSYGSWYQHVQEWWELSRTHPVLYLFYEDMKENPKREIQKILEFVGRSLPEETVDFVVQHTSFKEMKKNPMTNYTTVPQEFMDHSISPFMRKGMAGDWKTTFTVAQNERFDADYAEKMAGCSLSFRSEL
Method: as §1

pKi [1]	pKi [2]	Compound
3.90	4.46	Clc1ccc2c(c1)C(N1CCNCC1)=Nc1ccccc1O2
4.12	4.26	CNCCCC1c2ccccc2C=Cc2ccccc21 [3-(5H-dibenzo[a,d][7]annulen-5-yl)-N-methylpropan-1-amine]
